Measurements: patent publication US11136314B2, “Forms of afatinib dimaleate” (Johnson Matthey Public Limited Company, priority 2017, dated 2021)

Test: Solid form stability under exposure to water / humidity
Format: physicochemical

| Compound | completely converts to a hydrated species (40° C., 75% RH) | stability compared with afatinib dimaleate Form A (40° C., 75% RH) | stable under exposure to water vapor under ambient conditions (about 25° C., >90% RH) | stable at about 40° C., 75% RH (about 40° C., 75% RH) | stability under exposure to water (exposure to water) |
| --- | --- | --- | --- | --- | --- |
| CN(C)C/C=C/C(=O)Nc1cc2c(Nc3ccc(F)c(Cl)c3)ncnc2cc1O[C@H]1CCOC1.O=C(O)/C=C\C(=O)O.O=C(O)/C=C\C(=O)O [Afatinib dimaleate Form A, afatinib dimaleate] | ≤ 11 days |  |  |  |  |
| CN(C)C/C=C/C(=O)Nc1cc2c(Nc3ccc(F)c(Cl)c3)ncnc2cc1O[C@H]1CCOC1.O=C(O)/C=C\C(=O)O.O=C(O)/C=C\C(=O)O [Form Z, afatinib dimaleate] |  | more stable than afatinib dimaleate Form A | about 3 days | over 19 days | stable under exposure to water |
